Experimental findings from the NIST ThermoML archive (doi:10.1021/je900293j) are described below.

The conditions of this data set: Transpiration method.

Numbers after ± are expanded uncertainties.

On to `Cc1ccc([N+](=O)[O-])cc1` [1-methyl-4-nitrobenzene], for which the “vapor or sublimation pressure” value is listed as 0.00125 ± 0.00018 kPa (283.15 K, Crystal); 0.00379 ± 0.00055 kPa (293.15 K, Crystal); 0.0102 ± 0.0015 kPa (303.15 K, Crystal); 0.0264 ± 0.0038 kPa (313.15 K, Crystal).
For the compound `Cc1ccccc1[N+](=O)[O-]` [2-nitrotoluene], the “vapor or sublimation pressure” value amounted to 0.00553 ± 0.0008 kPa (283.15 K, Liquid); 0.0127 ± 0.0018 kPa (293.15 K, Liquid); 0.0297 ± 0.0043 kPa (303.15 K, Liquid); 0.0611 ± 0.0088 kPa (313.15 K, Liquid).
For `Cc1cccc([N+](=O)[O-])c1` [3-nitrotoluene], the “vapor or sublimation pressure” value by setting is: (283.15 K, Crystal) 0.00339 ± 0.00049 kPa; (293.15 K, Liquid) 0.00855 ± 0.0012 kPa; (303.15 K, Liquid) 0.0195 ± 0.0028 kPa; (313.15 K, Liquid) 0.0378 ± 0.0055 kPa.
For the compound `CCCCCCCCCCCCCC` [tetradecane], the “vapor or sublimation pressure” value reads like this: (283.15 K, Liquid) 0.000427 ± 1.7e-05 kPa; (293.15 K, Liquid) 0.00121 ± 5e-05 kPa; (303.15 K, Liquid) 0.00322 ± 0.00013 kPa; (313.15 K, Liquid) 0.0081 ± 0.00031 kPa.

For orientation: vapor or sublimation pressure means the pressure of vapour in equilibrium with the condensed phase.
